Source: patent publication US20170008888A1 (KYORIN PHARMACEUTICAL CO., LTD., priority 2014, published 2017)

Assays:
Format in all cases: binding
[1] = molecular target: T1, TAO2 (Homo sapiens, UniProt Q9UL54); assay: Probe-based (AX9989) kinase profiling in Jurkat lysate: TAO2; settings: read-out: TAO2 Inhibition % at indicated screening concentration; for inhibition at 1 µM: screening concentration 1 μM; for inhibition at 10 µM: screening concentration 10 μM
T1 construct: screened for activity against several kinases in Jurkat cells; endogenous in cells; host or cells: Jurkat cell lysate
T1 sequence (Q9UL54 1-1235): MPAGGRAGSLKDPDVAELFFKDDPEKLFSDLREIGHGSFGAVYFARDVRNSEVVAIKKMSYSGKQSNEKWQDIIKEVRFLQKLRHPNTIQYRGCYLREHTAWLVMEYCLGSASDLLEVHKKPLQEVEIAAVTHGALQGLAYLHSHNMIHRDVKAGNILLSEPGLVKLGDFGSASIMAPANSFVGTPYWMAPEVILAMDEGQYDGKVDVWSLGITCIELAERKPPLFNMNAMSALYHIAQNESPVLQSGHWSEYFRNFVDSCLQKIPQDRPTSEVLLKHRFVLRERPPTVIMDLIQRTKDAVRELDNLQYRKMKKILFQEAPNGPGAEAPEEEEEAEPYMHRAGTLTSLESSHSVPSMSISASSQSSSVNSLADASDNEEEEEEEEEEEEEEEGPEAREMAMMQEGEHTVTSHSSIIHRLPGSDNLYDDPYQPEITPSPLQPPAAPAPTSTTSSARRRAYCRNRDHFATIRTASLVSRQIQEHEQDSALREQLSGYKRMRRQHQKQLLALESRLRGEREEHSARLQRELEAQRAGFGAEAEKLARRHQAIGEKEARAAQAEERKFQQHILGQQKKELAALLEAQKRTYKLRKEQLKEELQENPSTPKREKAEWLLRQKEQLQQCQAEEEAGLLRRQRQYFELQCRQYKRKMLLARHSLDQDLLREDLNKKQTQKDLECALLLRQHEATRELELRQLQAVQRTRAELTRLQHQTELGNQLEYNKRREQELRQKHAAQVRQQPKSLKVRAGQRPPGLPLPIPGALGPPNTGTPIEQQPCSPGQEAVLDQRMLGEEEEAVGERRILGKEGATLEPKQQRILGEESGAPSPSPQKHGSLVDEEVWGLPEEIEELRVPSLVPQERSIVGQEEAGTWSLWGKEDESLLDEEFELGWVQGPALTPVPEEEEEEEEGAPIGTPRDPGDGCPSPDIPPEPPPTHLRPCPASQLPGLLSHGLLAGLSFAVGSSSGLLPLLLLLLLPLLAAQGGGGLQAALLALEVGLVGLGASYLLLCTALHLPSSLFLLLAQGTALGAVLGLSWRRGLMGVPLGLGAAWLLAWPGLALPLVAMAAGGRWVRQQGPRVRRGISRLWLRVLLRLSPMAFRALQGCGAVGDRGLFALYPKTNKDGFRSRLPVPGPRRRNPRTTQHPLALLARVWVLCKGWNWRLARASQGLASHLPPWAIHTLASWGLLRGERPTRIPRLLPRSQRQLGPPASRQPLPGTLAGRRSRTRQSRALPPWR
Procedure, shortened: (§1)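 Jurkat lysate (50 mM HEPES pH 7.5, 150 mM NaCl, 0.1% Triton X-100, 20 mM MnCl2) pre-incubated 15 min with compound at room temperature, then labeled with 5 μM acyl phosphate ATP probe AX9989. Tryptic probe-labeled peptides streptavidin-captured and quantified by LC/MS; percent inhibition from decreased fragment intensity versus untreated.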

[2] = molecular target: T2, BRD4 bromodomain domain I [BRD4(1)] (Homo sapiens, UniProt O60885); assay: BRD4 bromodomain domain 1 inhibition assay (TR-FRET); settings: for inhibition at 10 µM: screening concentration 10 μM
T2 construct: BRD4 bromodomain domain I [BRD4(1)]; purchased Cayman Chemicals
Procedure, shortened: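 0.5% DMSO, in triplicate, using Cayman BRD4(1) TR-FRET protocol with slight modification. 670/620 nm ratio normalized to 10 μM JQ1, with DMSO control set as 0% inhibition.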

[3] = tested on: AMPKa1 or AMPKa2; assay: Probe-based (AX9989) kinase profiling in Jurkat lysate: AMPKa1 or AMPKa2
Procedure, shortened: as §1

[4] = tested on: ABL or ARG; assay: Probe-based (AX9989) kinase profiling in Jurkat lysate: ABL or ARG
Procedure, shortened: as §1

inhibition at 1 µM [1] [%] | inhibition at 10 µM [2] [%] | AMPKa1 or AMPKa2 Inhibition % at indicated screening concentration ([3]; screening concentration 1 μM) | ABL or ARG Inhibition % at indicated screening concentration ([4]; screening concentration 1 μM) | inhibition at 10 µM [1] [%] | IC50 [2] [µM] | AMPKa1 or AMPKa2 Inhibition % at indicated screening concentration ([3]; screening concentration 10 μM) | ABL or ARG Inhibition % at indicated screening concentration ([4]; screening concentration 10 μM) | SMILES
≤ 35 | 70 to 85 | E (E is ≦35%) | E (E is ≦35%) | – | – | – | – | CCOc1cc(C(=O)N2CCN(c3cccnc3)CC2)ccc1Nc1cc2c(cn1)N(C)C(=O)c1occc1N2C [Compound T56]
≤ 35 | 70 to 85 | E (E is ≦35%) | E (E is ≦35%) | – | – | – | – | CCOc1cc(C(=O)N[C@H]2CC[C@H](O)CC2)ccc1Nc1cc2c(cn1)N(C)C(=O)c1ccccc1N2C [Compound T62]
≤ 35 | 70 to 85 | E (E is ≦35%) | E (E is ≦35%) | – | – | – | – | CCOc1cc(C(=O)N(C)[C@H]2CC[C@H](O)CC2)ccc1Nc1cc2c(cn1)N(C)C(=O)c1ccccc1N2C [Compound T64]
≤ 35 | < 70 | E (E is ≦35%) | E (E is ≦35%) | – | – | – | – | CN1CCC(N2CCN(C(=O)c3ccc(Nc4cc5c(cn4)N(C)C(=O)c4ccccc4N5C)c(F)c3)CC2)CC1 [Compound T70]
≤ 35 | 70 to 85 | E (E is ≦35%) | E (E is ≦35%) | – | – | – | – | CN1CCC(N2CCN(C(=O)c3ccc(Nc4cc5c(cn4)N(C)C(=O)c4ccccc4N5C)c(OC(F)F)c3)CC2)CC1 [Compound T76]
– | – | – | – | 50 to 75 | < 2 | E (E is ≦35%) | E (E is ≦35%) | CN1C(=O)c2c(F)cccc2Oc2cc(N[C@H]3CC[C@H](O)CC3)ncc21 [Compound T92]
– | – | – | – | 50 to 75 | 2 to 5 | D (D is >35% to ≦50%) | E (E is ≦35%) | COc1cccc2c1Oc1cc(N[C@H]3CC[C@H](O)CC3)ncc1N(C)C2=O [Compound T95]
– | – | – | – | 50 to 75 | 2 to 5 | E (E is ≦35%) | E (E is ≦35%) | CN1C(=O)c2c(F)ccc(F)c2Oc2cc(N[C@H]3CC[C@H](O)CC3)ncc21 [Compound T97]
– | – | – | – | ≤ 35 | 2 to 5 | E (E is ≦35%) | E (E is ≦35%) | CCOc1cc(C(=O)N2CCN(C3CCN(C)CC3)CC2)ccc1Nc1cc2c(cn1)N(C)C(=O)c1ccccc1O2 [Compound T98]
– | – | – | – | ≤ 35 | < 2 | E (E is ≦35%) | E (E is ≦35%) | CCOc1cc(C(=O)N2CCN(C3CCN(C)CC3)CC2)ccc1Nc1cc2c(cn1)N(C)C(=O)c1c(F)cccc1O2 [Compound T102]
– | – | – | – | ≤ 35 | 2 to 5 | E (E is ≦35%) | E (E is ≦35%) | C[C@@H]1C[C@H](Nc2cc3c(cn2)N(C)C(=O)c2ccccc2N3C)CC[C@H]1O [Compound T115]
